The values that follow come from patent US9242970B2 (ACTELION PHARMACEUTICALS LTD., priority 2010, dated 2016).

Read-outs that look alike come from different tables or passages of the source.

One may read the IC50 as the midpoint of a concentration-inhibition curve.

Experiment [1] deals with human orexin-2 receptor (Homo sapiens (Human), UniProt O43614). In words: In vitro assay: intracellular calcium measurements (FLIPR), antagonistic activity. As to conditions: CHO cells, 3 nM orexin-A, marked values are geometric means of n = 2-6, read-out: IC50 OX2. Format: cell-based. A general note: A change in cytosolic calcium serves as a functional read-out for many receptors and channels.
Sequence of human orexin-2 receptor (O43614 whole entry): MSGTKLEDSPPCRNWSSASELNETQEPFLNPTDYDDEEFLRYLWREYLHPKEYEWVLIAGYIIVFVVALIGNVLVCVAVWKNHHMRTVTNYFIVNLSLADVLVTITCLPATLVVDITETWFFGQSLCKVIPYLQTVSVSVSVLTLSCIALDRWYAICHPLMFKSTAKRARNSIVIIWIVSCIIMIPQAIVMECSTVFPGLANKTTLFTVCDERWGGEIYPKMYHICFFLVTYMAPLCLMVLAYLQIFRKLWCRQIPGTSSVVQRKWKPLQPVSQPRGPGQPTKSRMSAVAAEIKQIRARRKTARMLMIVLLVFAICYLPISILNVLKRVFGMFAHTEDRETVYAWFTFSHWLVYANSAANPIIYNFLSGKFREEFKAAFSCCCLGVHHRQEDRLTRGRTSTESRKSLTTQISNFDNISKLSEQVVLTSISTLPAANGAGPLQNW

Experiment [2] addresses human orexin-1 receptor (Homo sapiens (Human), UniProt O43613). The description is as above. Type of experiment: cell-based. As to conditions: CHO cells, 3 nM orexin-A, marked values are geometric means of n = 2-6, read-out: IC50 OX1.
The mark [3] stands for this setting: compound incubation time of 10 min.

Sequence of human orexin-1 receptor (O43613 whole entry): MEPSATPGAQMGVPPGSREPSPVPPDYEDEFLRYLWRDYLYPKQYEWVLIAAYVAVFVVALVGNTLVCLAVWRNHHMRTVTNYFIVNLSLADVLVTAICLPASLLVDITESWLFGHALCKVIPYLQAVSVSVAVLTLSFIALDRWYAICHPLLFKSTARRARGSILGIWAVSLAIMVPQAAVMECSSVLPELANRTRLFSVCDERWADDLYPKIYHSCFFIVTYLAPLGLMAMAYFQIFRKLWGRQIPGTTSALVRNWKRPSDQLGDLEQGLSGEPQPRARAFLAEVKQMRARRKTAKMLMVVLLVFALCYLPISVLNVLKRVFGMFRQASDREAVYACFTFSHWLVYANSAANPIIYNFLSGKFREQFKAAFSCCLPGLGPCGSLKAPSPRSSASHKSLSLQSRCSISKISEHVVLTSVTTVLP

Consider `O=C1[C@H](O)C[C@@H](c2c(F)cccc2OCCF)N1Cc1ccc(OC(F)(F)F)cc1` (racemic) [Example 432, rac-(3R*,5S*)-5-(2-fluoro-6-(2-fluoroethoxy)phenyl)-3-hydroxy-1-(4-(trifluoromethoxy)benzyl)pyrrolidin-2-one], for which the IC50 in experiment [1] (compound incubation 120 min) worked out at 57 nM; in experiment [2] (compound incubation 120 min), 3960 nM.
For `CCOc1cccc(F)c1[C@@H]1C[C@@H](O)C(=O)N1Cc1ccccc1OC(F)(F)F` (racemic) [Example 433, rac-(3R*,5S*)-5-(2-ethoxy-6-fluorophenyl)-3-hydroxy-1-(2-(trifluoromethoxy)benzyl)pyrrolidin-2-one], the IC50 was found to be 3920 nM in experiment [1] (compound incubation 120 min) and 1710 nM in experiment [2] (compound incubation 120 min).
On to `CCOc1cccc(F)c1[C@@H]1C[C@H](F)C(=O)N1Cc1ccc(OC(F)(F)F)c(F)c1` (racemic) [Example 434, rac-(3S*,5S*)-5-(2-ethoxy-6-fluorophenyl)-3-fluoro-1-(3-fluoro-4-(trifluoromethoxy)benzyl)pyrrolidin-2-one], for which the IC50 in experiment [1] (compound incubation 120 min) turned out to be 21 nM; in experiment [2] (compound incubation 120 min), 655 nM.
On to `CCOc1cccc(F)c1[C@@H]1C[C@H](Cl)C(=O)N1Cc1ccc(OC(F)(F)F)c(F)c1` (racemic) [Example 435, rac-(3S*,5S*)-3-chloro-5-(2-ethoxy-6-fluorophenyl)-1-(3-fluoro-4-(trifluoromethoxy)benzyl)pyrrolidin-2-one], for which the IC50 worked out at 30 nM in experiment [1] (compound incubation 120 min) and 660 nM in experiment [2] (compound incubation 120 min).
The like results for `CCOc1cccc(Cl)c1[C@@H]1C[C@H](F)C(=O)N1Cc1ccc(OC(F)(F)F)cc1` (racemic) [Example 436, rac-(3S*,5S*)-5-(2-chloro-6-ethoxyphenyl)-3-fuoro-1-(4-(trifluoromethoxy)benzyl)pyrrolidin-2-one] were, in that order, 31 nM and 965 nM.
In the case of `CCOc1cc(F)cc(F)c1[C@@H]1C[C@H](F)C(=O)N1Cc1ccc(OC(F)(F)F)cc1` (racemic) [Example 438, rac-(3S*,5S*)-5-(2-ethoxy-4,6-difluorophenyl)-3-fluoro-1-(4-(trifluoromethoxy)benzyl)pyrrolidin-2-one], the figures for the IC50 in experiment [1] (compound incubation 120 min) and in experiment [2] (compound incubation 120 min) were 37 nM and 921 nM, respectively.
The like results for `CCOc1cc(F)cc(F)c1[C@@H]1C[C@H](Cl)C(=O)N1Cc1ccc(OC(F)(F)F)cc1` (racemic) [Example 439, rac-(3S*,5S*)-3-chloro-5-(2-ethoxy-4,6-difluorophenyl)-1-(4-(trifluoromethoxy)benzyl)pyrrolidin-2-one] were, in that order, 63 nM and 575 nM.
Consider `COc1cccc(OC)c1C1CCCC(=O)N1Cc1cnc2ccccc2c1` (centres unmarked) [Example 1, 6-(2,6-dimethoxyphenyl)-1-(quinolin-3-ylmethyl)piperidin-2-one], for which the figures for the IC50 in experiment [1] (setting [3]) and in experiment [2] (setting [3]) were 209 nM and 643 nM, respectively.
Turning to `COc1cccc(OC)c1C1CCCC(=O)N1Cc1ccc2sc(C)nc2c1` (centres unmarked) [Example 2, 6-(2,6-dimethoxyphenyl)-1-((2-methylbenzo[d]thiazol-5-yl)methyl)piperidin-2-one], the concentration for half-maximal inhibition (IC50) was 13 nM in experiment [1] (compound incubation 120 min) and 26 nM in experiment [2] (compound incubation 120 min).
Regarding `COc1cccc(OC)c1C1CCCC(=O)N1Cc1ccc2ncccc2c1` (centres unmarked) [Example 3, 6-(2,6-dimethoxyphenyl)-1-(quinolin-6-ylmethyl)piperidin-2-one], the IC50 in experiment [1] (compound incubation 120 min) worked out at 1000 nM; in experiment [2] (compound incubation 120 min), 154 nM.
As for `COc1cccc(OC)c1C1CCCC(=O)N1Cc1cnc(OC(F)F)c(Cl)c1` (centres unmarked) [Example 5, 1-((5-chloro-6-(difluoromethoxy)pyridin-3-yl)methyl)-6-(2,6-dimethoxyphenyl)piperidin-2-one], the IC50 came out at 38 nM in experiment [1] (compound incubation 120 min) and 224 nM in experiment [2] (compound incubation 120 min).
On to `COc1cccc(OC)c1C1CCCC(=O)N1Cc1cccc(-c2ccc(F)cc2)n1` (centres unmarked) [Example 6, 6-(2,6-dimethoxyphenyl)-1-((6-(4-fluorophenyl)pyridin-2-yl)methyl)piperidin-2-one], for which the IC50 turned out to be 142 nM in experiment [1] (compound incubation 120 min) and 119 nM in experiment [2] (compound incubation 120 min).
The like results for `COc1cccc(OC)c1C1CCCC(=O)N1Cc1cccc(-c2cccnc2)c1` (centres unmarked) [Example 7, 6-(2,6-dimethoxyphenyl)-1-(3-(pyridin-3-yl)benzyl)piperidin-2-one] were, in that order, 55 nM and 71 nM.
The corresponding values for `COc1cccc(OC)c1C1CCCC(=O)N1Cc1cncc(-c2ccccc2)c1` (centres unmarked) [Example 8, 6-(2,6-dimethoxyphenyl)-1-((5-phenylpyridin-3-yl)methyl)piperidin-2-one] are 700 nM and 1700 nM.
For `COc1cccc(OC)c1C1CCCC(=O)N1Cc1cccc(-c2ccncc2)c1` (centres unmarked) [Example 9, 6-(2,6-dimethoxyphenyl)-1-(3-(pyridin-4-yl)benzyl)piperidin-2-one], the IC50 in experiment [1] (compound incubation 120 min) was 64 nM; in experiment [2] (compound incubation 120 min), 29 nM.
Regarding `COc1cccc(OC)c1C1CCCC(=O)N1Cc1cccc(-c2ccccn2)c1` (centres unmarked) [Example 10, 6-(2,6-dimethoxyphenyl)-1-(3-(pyridin-2-yl)benzyl)piperidin-2-one], the IC50 stood at 8 nM in experiment [1] (compound incubation 120 min) and 9 nM in experiment [2] (compound incubation 120 min).
`COc1cccc(OC)c1C1CCCC(=O)N1Cc1cccc(-c2ccccc2)n1` (centres unmarked) [Example 11, 6-(2,6-dimethoxyphenyl)-1-((6-phenylpyridin-2-yl)methyl)piperidin-2-one]: the IC50 was determined as 43 nM in experiment [1] (compound incubation 120 min) and 34 nM in experiment [2] (compound incubation 120 min).
For `COc1cccc(OC)c1C1CCCC(=O)N1Cc1ccnc(-c2ccccc2)c1` (centres unmarked) [Example 12, 6-(2,6-dimethoxyphenyl)-1-((2-phenylpyridin-4-yl)methyl)piperidin-2-one], the IC50 in experiment [1] (compound incubation 120 min) turned out to be 34 nM; in experiment [2] (compound incubation 120 min), 25 nM.
As for `COc1cccc(OC)c1C1CCCC(=O)N1Cc1cccc(N2CCCCC2)c1` (centres unmarked) [Example 13, 6-(2,6-dimethoxyphenyl)-1-(3-(piperidin-1-yl)benzyl)piperidin-2-one], the results for the IC50 in experiment [1] (compound incubation 120 min) and in experiment [2] (compound incubation 120 min) were 46 nM and 22 nM, respectively.
The like results for `COc1cccc(OC)c1C1CCCC(=O)N1Cc1cccc(-c2nccs2)c1` (centres unmarked) [Example 14, 6-(2,6-dimethoxyphenyl)-1-(3-(thiazol-2-yl)benzyl)piperidin-2-one] were, in that order, 4 nM and 4 nM.
For `COc1cccc(OC)c1C1CCCC(=O)N1Cc1cccc2ccccc12` (centres unmarked) [Example 15, 6-(2,6-dimethoxyphenyl)-1-(naphthalen-1-ylmethyl)piperidin-2-one], the IC50 was found to be 23 nM in experiment [1] (compound incubation 120 min) and 210 nM in experiment [2] (compound incubation 120 min).
`COc1cccc(OC)c1C1CCCC(=O)N1Cc1cccc(-c2csc(C)n2)c1` (centres unmarked) [Example 16, 6-(2,6-dimethoxyphenyl)-1-(3-(2-methylthiazol-4-yl)benzyl)piperidin-2-one]: the values for the IC50 in experiment [1] (compound incubation 120 min) and in experiment [2] (compound incubation 120 min) were 2 nM and 3 nM, respectively.
Regarding `COc1cccc(OC)c1C1CCCC(=O)N1Cc1cccc(N2CCOCC2)c1` (centres unmarked) [Example 17, 6-(2,6-dimethoxyphenyl)-1-(3-morpholinobenzyl)piperidin-2-one], the IC50 came out at 661 nM in experiment [1] (compound incubation 120 min) and 210 nM in experiment [2] (compound incubation 120 min).
As for `COc1cccc(OC)c1C1CCCC(=O)N1Cc1ccc(-c2ccccc2)s1` (centres unmarked) [Example 18, 6-(2,6-dimethoxyphenyl)-1-((5-phenylthiophen-2-yl)methyl)piperidin-2-one], the figures for the IC50 in experiment [1] (compound incubation 120 min) and in experiment [2] (compound incubation 120 min) were 38 nM and 117 nM, respectively.
For `COc1cccc(OC)c1C1CCCC(=O)N1Cc1cccc(-n2cccn2)c1` (centres unmarked) [Example 19, 1-(3-(1H-pyrazol-1-yl)benzyl)-6-(2,6-dimethoxyphenyl)piperidin-2-one], the IC50 in experiment [1] (compound incubation 120 min) was found to be 26 nM; in experiment [2] (compound incubation 120 min) it was 25 nM.
Regarding `COc1cccc(OC)c1C1CCCC(=O)N1Cc1ccc2nccnc2c1` (centres unmarked) [Example 20, 6-(2,6-dimethoxyphenyl)-1-(quinoxalin-6-ylmethyl)piperidin-2-one], the IC50 in experiment [1] (compound incubation 120 min) came out at 864 nM; in experiment [2] (compound incubation 120 min) it was 952 nM.
For `COc1cccc(OC)c1C1CCCC(=O)N1Cc1cnc(-c2ccccc2)s1` (centres unmarked) [Example 21, 6-(2,6-dimethoxyphenyl)-1-((2-phenylthiazol-5-yl)methyl)piperidin-2-one], the figures for the IC50 in experiment [1] (compound incubation 120 min) and in experiment [2] (compound incubation 120 min) were 366 nM and 951 nM, respectively.
For the compound `COc1cccc(OC)c1C1CCCC(=O)N1Cc1cc(-c2ccccc2)ccn1` (centres unmarked) [Example 22, 6-(2,6-dimethoxyphenyl)-1-((4-phenylpyridin-2-yl)methyl)piperidin-2-one], the IC50 in experiment [1] (compound incubation 120 min) is 131 nM; in experiment [2] (compound incubation 120 min), 166 nM.
On to `COc1cccc(OC)c1C1CCCC(=O)N1Cc1cccc(-n2cncn2)c1` (centres unmarked) [Example 23, 1-(3-(1H-1,2,4-triazol-1-yl)benzyl)-6-(2,6-dimethoxyphenyl)piperidin-2-one], for which the IC50 in experiment [1] (compound incubation 120 min) was 471 nM; in experiment [2] (compound incubation 120 min) it was 312 nM.
Turning to `COc1cccc(OC)c1C1CCCC(=O)N1Cc1cccc(N2CCCC2)c1` (centres unmarked) [Example 24, 6-(2,6-dimethoxyphenyl)-1-(3-(pyrrolidin-1-yl)benzyl)piperidin-2-one], the figures for the IC50 in experiment [1] (compound incubation 120 min) and in experiment [2] (compound incubation 120 min) were 31 nM and 22 nM, respectively.
The like results for `COc1cccc(OC)c1C1CCCC(=O)N1Cc1cc(-c2ccccc2)on1` (centres unmarked) [Example 25, 6-(2,6-dimethoxyphenyl)-1-((5-phenylisoxazol-3-yl)methyl)piperidin-2-one] were, in that order, 902 nM and 688 nM.
On to `COc1cccc(OC)c1C1CCCC(=O)N1Cc1cnn(-c2ccccc2)c1` (centres unmarked) [Example 26, 6-(2,6-dimethoxyphenyl)-1-((1-phenyl-1H-pyrazol-4-yl)methyl)piperidin-2-one], for which the values for the IC50 in experiment [1] (compound incubation 120 min) and in experiment [2] (compound incubation 120 min) were 115 nM and 167 nM, respectively.
Turning to `COc1cccc(OC)c1C1CCCC(=O)N1Cc1cccc(-n2ccnc2)c1` (centres unmarked) [Example 27, 1-(3-(1H-imidazol-1-yl)benzyl)-6-(2,6-dimethoxyphenyl)piperidin-2-one], the IC50 was determined as 181 nM in experiment [1] (compound incubation 120 min) and 136 nM in experiment [2] (compound incubation 120 min).
For the compound `COc1cccc(OC)c1C1CCCC(=O)N1Cc1cccc(N2CCCCC2)n1` (centres unmarked) [Example 28, 6-(2,6-dimethoxyphenyl)-1-((6-(piperidin-1-yl)pyridin-2-yl)methyl)piperidin-2-one], the results for the IC50 in experiment [1] (compound incubation 120 min) and in experiment [2] (compound incubation 120 min) were 11 nM and 21 nM, respectively.
